Structures are written as SMILES.

This note sets out measurements from US12281107B2, “SET8 lysine methyltransferase inhibitor and preparation method and application thereof” (HAINAN YILING MEDICAL INDUSTRY & DEVELOPMENT Co., Ltd., priority 2019, dated 2025).

One experiment has as its system glioma cell line SH-SY5Y. As to the kind of experiment: CCK-8 cell proliferation inhibition test, SH-SY5Y. The conditions noted are these: Homo sapiens, 48 h; for inhibition at 100 µM: read-out: IC % for 100 μM; for IC50: CCK-8. The experiment is classed as cell-based. On the procedure: (§1) 1. Experimental Method: […] cell line SH-SY5Y, colorectal cancer cell line SW480 and liver cancer cell line HepG2 are respectively cultured in an RPMI-1640 medium containing 10% calf serum at 37° C. in a 5% CO2 incubator. The […] method is adopted for cell proliferation inhibition test, and the main operation is as follows: taking the tumor cell line in the logarithmic phase, digesting with 0.25% trypsin, preparing an RPMI-1640 medium containing 10% newborn calf serum into a cell suspension of 6×10^4 cells/mL, and inoculating the cell suspension into a 96-well plate, with 100 μL per well. Culturing at 37° C. and 5% CO2 saturated humidity for 12 h. After adherence, absorbing the culture supernatants in the wells, and adding the sample solution prepared from the RPMI-1640 medium containing 1% calf serum to each well so that the final concentrations of the samples are 100 μM, 30 μM, 10 μM, 3 μM, 1 μM, and 0.3 μM respectively. With 3 wells in parallel for each concentration, continuing culturing for 48 h, then adding 10 μL of CCK-8 solution (Dalian Meilun, MA0218) to each well, and continuing incubating at 37° C. and 5% CO2 for 4 h. Selecting 470 nm on the enzyme-linked immunosorbent assay apparatus to measure the light absorption value of each well, and setting a blank group (only adding a culture solution containing cells) and a control group (using the culture solution to replace drugs) to calculate the cell proliferation inhibition rate. Inhibition rate (%)=(1−average OD value of 3 wells in experimental group/average OD value of 3 wells in control group)×100%. With the inhibition rate as an ordinate, a regression curve is drawn to calculate the IC50 value of the sample. Graphpad prism 7.0 software are adopted for data processing and statistical analysis by.

For experiment [1], the target named is T1, lysine methyltransferase SET8 (Homo sapiens, UniProt Q9NQR1).
T1 construct: purchased Cayman Company
T1 sequence (Q9NQR1 1-393): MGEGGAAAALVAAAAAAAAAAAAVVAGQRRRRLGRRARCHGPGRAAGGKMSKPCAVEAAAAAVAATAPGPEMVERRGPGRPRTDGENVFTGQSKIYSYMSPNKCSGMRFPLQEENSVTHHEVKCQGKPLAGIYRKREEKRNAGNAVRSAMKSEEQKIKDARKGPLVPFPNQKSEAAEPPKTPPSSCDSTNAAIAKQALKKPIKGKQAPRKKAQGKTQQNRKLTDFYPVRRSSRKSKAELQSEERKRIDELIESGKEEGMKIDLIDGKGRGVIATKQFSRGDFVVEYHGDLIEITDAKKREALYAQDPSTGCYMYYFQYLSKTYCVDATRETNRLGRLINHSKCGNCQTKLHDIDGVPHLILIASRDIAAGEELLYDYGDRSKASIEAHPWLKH
As to the kind of experiment: SET8 methyltransferase inhibitor screening assay kit (Cayman), fluorescence. The experiment is classed as biochemical. The conditions noted are these: incubation at 37° C. for 10 min; inhibitor concentration not given. On the procedure: The steps of activity detection are completely based on the SET8 methyltransferase inhibitor screening assay kit of Cayman Company. In short, reagents in the kit are added to the 96-well plate to be tested according to the Table A below.
Then 10 μL of SET8 albumen protein is added to each well, and the reaction begins. After incubation at 37° C. for 10 min, the fluorescence intensity (A) value is measured at the excitation wavelength of 535 nm and the […] of 590 nm. the inhibition rate of the compound is calculated according to the following formula: Inhibition rate %=(Anormal−Asample)/)Normal*100%, and the inhibition rate of each inhibitor on lysine methyltransferase is shown in Table 1.

Experiment [2] deals with colorectal cancer cell line SW480. As to the kind of experiment: CCK-8 cell proliferation inhibition test, SW480. The experiment is classed as cell-based. The conditions noted are these: for IC50: Homo sapiens, SW480, 48 h, CCK-8; for IC % for 100 μM: SW480, 100 μM, 48 h; for tumor cell proliferation inhibitory activity (in words): SW480, summary of Table 2. On the procedure: as §1

Experiment [3] deals with liver cancer cell line HepG2. As to the kind of experiment: CCK-8 cell proliferation inhibition test, HepG2. The experiment is classed as cell-based. The conditions noted are these: for IC % for 100 μM: HepG2, 100 μM, 48 h; for tumor cell proliferation inhibitory activity (in words): HepG2, summary of Table 2; for IC50: Homo sapiens, HepG2, 48 h, CCK-8. How it is done: as §1

Consider `COc1ccc(Cc2nc(C3CCCCC3)n(C3CCN(C)CC3)n2)cc1` [Compound 18, 4-(5-cyclohexyl-3-(4-methoxybenzyl)-1H-1,2,4-triazol-5-yl)-1-methylpiperidin], for which, in the experiment on glioma cell line SH-SY5Y, the inhibition at 100 µM was determined as 41.9% and the midpoint of inhibition, the IC50, lay at 126 µM. The “Inhibition Rate (%)” value in experiment [1] was 43.8%.
Take `CN1CCC(n2nc(-c3ccccc3)nc2C2CNCCO2)CC1` (stereo not drawn) [Compound 15, 2-(1-(1-methylpiperidin-4-yl)-3-phenyl-1H-1,2,4-triazol-5-yl)morpholine]: in the experiment with glioma cell line SH-SY5Y, the inhibition at 100 µM was determined as 52.3% and the IC50 – broadly, the midpoint of a concentration-inhibition curve – came out at 95.3 µM. The “Inhibition Rate (%)” value in experiment [1] was 53.9%.
As to `COc1ccc(Cc2nc(C3CCCCO3)n(Cc3ccc(OC)cc3)n2)cc1` (stereo not drawn) [Compound 12, 1,3-bis(4-methoxybenzyl)-5-(tetrahydro-2H-pyran-2-yl)-1H-1,2,4-triazole], in the experiment on glioma cell line SH-SY5Y, the inhibition at 100 µM is 60.1% and 71.8 µM corresponded to half-maximal inhibition (IC50). In addition, the “Inhibition Rate (%)” value in experiment [1] was 67.8%.
As for `COc1ccc(Cc2nc(C3CCCCC3)n(Cc3ccc(OC)cc3)n2)cc1` [Compound 21, 5-cyclohexyl-1,3-dis(4-methoxybenzyl)-1H-1,2,4-triazole], in the experiment on glioma cell line SH-SY5Y, the inhibition at 100 µM was 46.2% and it took 114 µM to reach half-maximal inhibition (IC50). Besides, the “Inhibition Rate (%)” value in experiment [1] was found to be 43.7%.
For `COc1ccc(Cc2nc(C3CNCCO3)n(-c3cnccn3)n2)cc1` (stereo not drawn) [Compound 7, 2-(3-(4-methoxybenzyl)-1-(pyrazin-2-yl)-1H-1,2,4-triazol-5-yl)morpholine], in the experiment with glioma cell line SH-SY5Y, the inhibition at 100 µM came to 57.9% and the midpoint of inhibition, the IC50, lay at 78.4 µM. Moreover, in experiment [1], the “Inhibition Rate (%)” value is 70.8%.
The matching figures for `COc1ccc(Cc2nc(C3CCCCO3)n(C3CCN(C)CC3)n2)cc1` (stereo not drawn) [Compound 10, 4-(3-(4-methoxybenzyl)-5-(tetrahydro-2H-pyran-2-yl)-1H-1,2,4-triazol-5-yl)-1-methylpiperidin]: 43.3%, 123 µM and 43.6%.
Consider `Cc1ccc(-c2nc(C3CNCCO3)n(C3CCN(C)CC3)n2)cc1` (stereo not drawn) [Compound 16, 2-(1-(1-methylpiperidin-4-yl)-3-(p-methylphenyl)-1H-1,2,4-triazol-5-yl)morpholine], for which, in the experiment with glioma cell line SH-SY5Y, the inhibition at 100 µM amounted to 52.8% and the IC50 worked out at 93.7 µM. Also, in experiment [1], the “Inhibition Rate (%)” value stood at 54.8%.
Take `COc1ccc(Cc2nc(C3CNCCO3)n(Cc3ccc(OC)cc3)n2)cc1` (stereo not drawn) [Compound 2, 2-(1,3-bis(4-methoxybenzyl)-1H-1,2,4-triazol-5-yl)morpholine]: in experiment [2], inhibition was half-maximal at 16.4 µM (IC50), the “IC % for 100 μM” value amounted to 75.8% and the “tumor cell proliferation inhibitory activity (in words)” value is reported as “good tumor cell proliferation inhibitory activity”. Further, in the experiment with glioma cell line SH-SY5Y, the inhibition at 100 µM came to 78.3% and half-maximal inhibition (IC50) was put at 13.7 µM. Besides, the “Inhibition Rate (%)” value in experiment [1] came out at 74.2%. Moreover, in experiment [3], the “IC % for 100 μM” value is 51.5%, the “tumor cell proliferation inhibitory activity (in words)” value was “good tumor cell proliferation inhibitory activity” and the IC50 worked out at 17.6 µM.
Consider `COc1ccc(Cn2nc(-c3ccccc3)nc2C2CNCCO2)cc1` (stereo not drawn) [Compound 13, 2-(1-(4-methoxybenzyl)-3-phenyl-1H-1,2,4-triazol-5-yl)morpholine], for which, in the experiment on glioma cell line SH-SY5Y, the inhibition at 100 µM was 37.8% and the IC50 was 138 µM. Also, in experiment [1], the “Inhibition Rate (%)” value turned out to be 32.5%.
Regarding `COc1ccc(Cc2nc(C3CNCCO3)n(C3CCCCC3)n2)cc1` (stereo not drawn) [Compound 3, 2-(1-cyclohexyl-3-(4-methoxybenzyl)-1H-1,2,4-triazol-5-yl)morpholine], in experiment [2], half-maximal inhibition (IC50) required 18.3 µM, the “IC % for 100 μM” value was found to be 73.2% and the “tumor cell proliferation inhibitory activity (in words)” value is “good tumor cell proliferation inhibitory activity”. Also, in the experiment with glioma cell line SH-SY5Y, the inhibition at 100 µM was determined as 76.5% and the IC50 is 22.6 µM. In addition, the “Inhibition Rate (%)” value in experiment [1] is 70.0%. Moreover, in experiment [3], the “IC % for 100 μM” value came out at 48.8%, the “tumor cell proliferation inhibitory activity (in words)” value is on record as “good tumor cell proliferation inhibitory activity” and the IC50 was 19.2 µM.
As to `COc1ccc(Cc2nc(C3CNCCO3)n(C)n2)cc1` (stereo not drawn) [Compound 8, 2-(3-(4-methoxybenzyl)-1-methyl-1H-1,2,4-triazol-5-yl)morpholine], in the experiment with glioma cell line SH-SY5Y, the inhibition at 100 µM came out at 59.5% and inhibition was half-maximal at 73.1 µM (IC50). In addition, the “Inhibition Rate (%)” value in experiment [1] is on record as 69.3%.
The corresponding values for `COc1ccc(Cc2nc(CN)n(C3CCN(C)CC3)n2)cc1` [Compound 11, (3-(4-methoxybenzyl)-1-(1-methylpiperidin-4-yl)-1H-1,2,4-triazol-5-yl)methylamine] are 39.9%, 132 µM and 36.8%.
The matching figures for `CN1CCC(n2nc(Cc3ccccc3)nc2C2CNCCO2)CC1` (stereo not drawn) [Compound 14, 2-(3-benzyl-1-(1-methylpiperidin-4-yl)-1H-1,2,4-triazol-5-yl)morpholine]: 53.2%, 92.5 µM and 59.2%.
The matching figures for `Cc1cccc(-c2nc(C3CNCCO3)n(C3CCN(C)CC3)n2)c1` (stereo not drawn) [Compound 17, 2-(1-(1-methylpiperidin-4-yl)-3-(m-methylphenyl)-1H-1,2,4-triazol-5-yl)morpholine]: 53.7%, 92.1 µM and 58.3%.
On to `COc1ccc(Cc2nc(C3CNCCO3)n(-c3ccccc3)n2)cc1` (stereo not drawn) [Compound 4, 2-(3-(4-methoxybenzyl)-1-phenyl-1H-1,2,4-triazol-5-yl)morpholine], for which, in the experiment on glioma cell line SH-SY5Y, the inhibition at 100 µM turned out to be 57.8% and the IC50 worked out at 78.6 µM. Also, in experiment [1], the “Inhibition Rate (%)” value is recorded as 71.5%.
As to `COc1ccc(Cc2nc(C(C)(C)C)n(C3CCN(C)CC3)n2)cc1` [Compound 19], in the experiment on glioma cell line SH-SY5Y, the inhibition at 100 µM is 44.8% and the IC50 was determined as 118 µM. In addition, in experiment [1], the “Inhibition Rate (%)” value stood at 45.2%.
The corresponding values for `COc1ccc(Cc2nc(C3CNCCO3)n(-c3cccc(C)c3)n2)cc1` (stereo not drawn) [Compound 5, 2-(3-(4-methoxybenzyl)-1-(m-methylphenyl)-1H-1,2,4-triazol-5-yl)morpholine] are 57.1%, 81.3 µM and 70.2%.
The matching figures for `COc1ccc(Cc2nc(C3CN(Cc4ccccc4)CCO3)n(C3CCN(C)CC3)n2)cc1` (stereo not drawn) [Compound 9, 4-benzyl-2-(3-(4-methoxybenzyl)-1-(1-methylpiperidin-4-yl)-1H-1,2,4-triazol-5-yl)morpholine]: 58.5%, 77.3 µM and 72.3%.
The corresponding values for `COc1ccc(Cc2nc(C3CNCCO3)n(C3CCN(C)CC3)n2)cc1` (stereo not drawn) [Compound 1, 2-(3-(4-methoxybenzyl)-1-(1-methylpiperidin-4-yl)-1H-1,2,4-triazol-5-yl)morpholine] are 52.5%, 94.7 µM and 58.4%.
`COc1ccc(Cc2nc(C3CNCCO3)n(-c3ccccn3)n2)cc1` (stereo not drawn) [Compound 6, 2-(3-(4-methoxybenzyl)-1-(pyridin-2-yl)-1H-1,2,4-triazol-5-yl)morpholine]: in the experiment on glioma cell line SH-SY5Y, the inhibition at 100 µM came out at 58.6% and half-maximal inhibition (IC50) required 76.5 µM. The “Inhibition Rate (%)” value in experiment [1] is 70.3%.
